Test system: patients with multiple sclerosis
Assay: MS-F202EXT open-label extension study
Format: in vivo, human
Details: for patients classified as Extension Timed Walk Responders: cut-off Jul. 31, 2008
Protocol: Data were presented by study pair (parent and extension).
In the MS-F202EXT study, which started recruiting patients several months after the completion of the parent study, patients were required to undergo a screening visit prior to dispensing of open-label 4-aminopyridine-SR. The study began with the potential to titrate the dose upward to a maximum of 20 mg b.i.d. with titration visits at weekly intervals. A number of protocol amendments decreased the maximum dose to 15 and then to 10 mg b.i.d. and changed the planned visit intervals, but in the current amended protocol, both the dose (10 mg b.i.d.) and the interval between visits (26 weeks) has been made consistent with MS-F203EXT.
This Example considers efficacy data collected from the three ongoing, open label extension studies (MS-F202EXT, MS-F203EXT, MS-F204EXT). The primary focus was the Timed 25-Foot Walk, assessed in a manner consistent with its evaluation in the parent double-blind studies. This included the determination of response to treatment using a criterion equivalent to the Timed Walk Response criterion used in the parent studies. […] The clinical meaningfulness of this criterion was evaluated in terms of the Subject and Clinician Global Impression scores recorded during the extension studies.
In the extension studies, a “Timed Walk Extension Responder” was defined as a patient who achieved a faster walking speed on the T25FW for the majority of on-drug treatment visits during the first year of the study (Visits 1-4 for MS-F203EXT and MS-F204EXT) than the maximum walking speed previously measured for the patient during any off-drug visits in either the parent study or in the extension study.

Nc1ccncc1 [4-aminopyridine]
patients classified as Extension Timed Walk Responders (all patients): 15.7% | Extension Timed Walk Response rate within year (double-blind Non-Responders, year 1): 11.1% | Extension Timed Walk Response rate within year (double-blind Non-Responders, year 2): 5.2% | Extension Timed Walk Response rate within year (double-blind Non-Responders, year 3): 6.1% | Extension Timed Walk Response rate within year (double-blind Responders, year 1): 25.6% | Extension Timed Walk Response rate within year (double-blind Responders, year 2): 23.1% | Extension Timed Walk Response rate within year (double-blind Responders, year 3): 22.2% | patients classified as Extension Timed Walk Responders (parent-study treated Timed Walk Non-Responders): 9.5% | patients classified as Extension Timed Walk Responders (parent-study treated Timed Walk Responders): 25.6% | Extension Timed Walk Response rate within year (placebo treated in parent study, year 1): 17.9% | Extension Timed Walk Response rate within year (placebo treated in parent study, year 2): 4.6% | Extension Timed Walk Response rate within year (placebo treated in parent study, year 3): 5.3% | patients classified as Extension Timed Walk Responders (placebo-treated in parent study): 14.3%

Reference: patent publication US20170319562A1, “Compositions and Methods for Extended Therapy with Aminopyridines” (Acorda Therapeutics, Inc., priority 2009, published 2017)
